From patent US20090226412A1, “AGENT FOR REDUCTION OF BLEEDING IN CEREBROVASCULAR DISORDER” (ONO PHARMACEUTICAL CO., LTD.,, priority 2005, published 2009)
Read-outs that look alike come from different tables or passages of the source.

Columns and labels:
[1] = system: normal human umbilical cord vein endothelial cell; experiment: Effect on vascular endothelial cell death induced by hydrogen peroxide (WST-1 method); assay type: cell-based; conditions: 0.5 mM hydrogen peroxide, 6 hours, compound added 15 minutes before
Protocol: A normal human umbilical cord vein endothelial cell (Cat. No. CRL-1730; Dainippon Pharmaceutical Co., Ltd.) was cultured in serum-containing liquid culture medium for vascular endothelial cell (Nissui Pharmaceutical Co., Ltd.) under conditions of 37° C., 5% CO2. The exchange of the culture fluid was performed every other day. The cells proliferated to confluent state were sub-cultured. 5×10^4 cells/mL of cell suspension was disseminated in an amount of 500 μL/well to a gelatin-coated 24 well plate (Iwaki). A few days later, the culture medium was removed after confirming that the cells were proliferated to confluent state, and changed to 480 μL/well of Dulbecco's Modified Eagle's Medium (DMEM; GIBCO-BRL)). The compound A was adjusted to become 50 times larger than the addition final concentration in DMEM after the dissolution of the compound A to dimethyl sulfoxide (DMSO). The sterilization was performed by using 0.22 μm filter for filtration sterilization (Millex, MILLIPORE). […]
The evaluation was performed by means of WST-1 method (modulated MTT method) with the use of Cell Counting Kit (DOJINDO). […] After that, 200 μL/well of the culture supernatant was collected, and then the absorbance (450 nm) was measured. The cell death inhibitory rate of the test substance treated group was calculated, regarding that the cell survival rate of the control group (untreated group) as a standard (100%).

[2] = rat, in vivo, iv, 30 mg/kg
Protocol: (§1) A rat (male Sprague Dawley (SD) rat, 7 weeks old; Shimizu Laboratory Supplies Co., Ltd. (SLC))) was anesthetized with urethane (1.2 g/6 mL/kg, i.p.), and then the animal was placed on an incubation mat (Microtemp, Seabrook Medical Systems) set to 37° C. after indwelling a catheter (EMS cutdown tube, JMS Co., Ltd.) made of vinyl chloride in a left femoral vein for administration of a test substance. […] Five minutes after the administration, a tip of the tail was cut at the position of 2 mm with a razor (single-edged feather), and immediately, the tail was immersed in saline (Otsuka normal saline) warmed to 37° C. Finally, the time until the hemorrhage was stopped (30 minutes at a maximum) was measured, which was regarded as bleeding time.

[3] = system: cerebral hemorrhage model with the use of SHR; experiment: Cerebral hemorrhage in MCA occlusion-recanalization model, intracerebral hemoglobin by ELISA; assay type: in vivo, rat; conditions: 24 hours after MCA occlusion, sham 4.5±0.74, saline 19.6±2.21
Protocol: For the animal, a male spontaneously hypertensive rat (hereinafter abbreviated to SHR) (14 to 15 week old); Japan Charles River) was used. The preparation of middle cerebral artery (hereinafter abbreviated to MCA) occlusion-recanalization model of rat was performed according to the method of Koizumi, et al., (in Stroke 8: 1-7, 1986). In particular, the rat was subjected to anesthetic induction by 4% halothane (halothane vaporizer, Shinano Co., Ltd.) in 30% oxygen/70% air. The anesthesia was maintained by means of 2.5% halothane. The animal was placed in a dorsal position. The dissection of anterior neck midline was performed, the left side of the common carotid artery and the external carotid artery were exfoliated from the surrounding connective tissue around the left carotid artery bifurcation, and then a thread was hooked around the artery to ligate, respectively. Afterwards, the left internal carotid artery was exfoliated from the surrounding connective tissue, and then a thread was hooked around the artery. The range of about 5 mm from the tip of a 4-0 nylon thread for surgery (NC sterilization operation thread, Nichiyo industry Co., Ltd.) (25 mm long) was silicon-coated with an impression material for dentistry (mixture solution of XANTOPREN VL plus and OPTOSIL-XANTOPREN ACTIVATOR, Heraeus Dental Material Co., Ltd.). Then the thread was inserted to the left carotid artery from the left carotid artery bifurcation. Then, the origin part of the left MCA was occluded by means of fixing with a Sugita type clip (Mizuho Medical Industry Co., Ltd.). Nine hours after the occlusion, rat was subjected to anesthetic induction with 4% halothane in 30% oxygen/70% air. The anesthesia was maintained by means of 2.5% halothane. […] An amount of cerebral hemorrhage was measured 24 hours after the MCA occlusion.
In addition, intracerebral hemoglobin content can be also measured by using the following methods, in particular, an enzyme-linked immunosorbent assay (ELISA). […]

[4] = system: cerebral hemorrhage model with the use of SHR; experiment: Cerebral hemorrhage in MCA occlusion-recanalization model, intracerebral hemoglobin by Drabkin's reagent; assay type: in vivo, rat; conditions: 3 mg/kg/h continuous i.v. for 9 hours right after occlusion; measured 24 hours after MCA occlusion; sham 13.0±1.1, saline 25.5±2.2
Protocol: For the animal, a male spontaneously hypertensive rat (hereinafter abbreviated to SHR) (14 to 15 week old); Japan Charles River) was used. The preparation of middle cerebral artery (hereinafter abbreviated to MCA) occlusion-recanalization model of rat was performed according to the method of Koizumi, et al., (in Stroke 8: 1-7, 1986). In particular, the rat was subjected to anesthetic induction by 4% halothane (halothane vaporizer, Shinano Co., Ltd.) in 30% oxygen/70% air. The anesthesia was maintained by means of 2.5% halothane. The animal was placed in a dorsal position. The dissection of anterior neck midline was performed, the left side of the common carotid artery and the external carotid artery were exfoliated from the surrounding connective tissue around the left carotid artery bifurcation, and then a thread was hooked around the artery to ligate, respectively. Afterwards, the left internal carotid artery was exfoliated from the surrounding connective tissue, and then a thread was hooked around the artery. […] An amount of cerebral hemorrhage was measured 24 hours after the MCA occlusion.
An amount of cerebral hemorrhage was measured on the basis of the content of intracerebral hemoglobin (Hb) as an indicator according to a method of Asahi et al. (J Cereb Blood Flow Metab 20: 452-457, 2000)). […] Afterwards, absorbance was measured at 540 nm of photometry wavelength. […]

[5] = Influence of PARP inhibitor on bleeding time (rat tail cut); conditions: male SD rat, intravenous bolus, tail tip cut 5 minutes after administration, 30 minutes at a maximum; compound A 30 mg/kg, heparin 100 U/kg; saline control about 15 minutes
Protocol: as §1

Molecule	inhibitory effect of the vascular endothelial cell disorder (cell death inhibitory rate) [1]	bleeding time [2]	content of intracerebral hemoglobin ([3]; 1 mg/kg/h) [µg/mL]	content of intracerebral hemoglobin ([3]; 3 mg/kg/h) [µg/mL]	content of intracerebral hemoglobin ([3]; 10 mg/kg/h) [µg/mL]	content of intracerebral hemoglobin [4] [µL]	bleeding time [5] [min]
O=C(Cc1n[nH]c(=O)c2c1CCCC2)NCCCCN1CCOCC1 [compound A, 4-(N-(4-(morpholin-4-yl)butyl)carbamoylmethyl)-5,6,7,8-tetrahydrophthalazin-1(2H)-one]	showed an inhibitory effect of the vascular endothelial cell disorder dose-dependently	about 15 minutes	15.4 ± 2.19	15.5 ± 2.14	10.3 ± 1.24	17.7 ± 1.3	–
heparin	–	–	–	–	–	–	≥ 30
